Measured values reported in PMC10504751, “Chalcone/1,3,4-Oxadiazole/Benzimidazole hybrids as novel anti-proliferative agents inducing apoptosis and inhibiting EGFR & BRAFV^600E” (BMC Chemistry, 2023).

Columns and labels:
EKVX = experiment: NCI one-dose SRB anti-proliferative screen; assay type: cell-based; settings: Homo sapiens; EKVX (Non-Small Cell Lung Cancer), NCI one dose 10 µM; read-out: Cell growth inhibition %
Protocol: (§1) The twenty-four synthesized compounds were submitted to the National Cancer Institute (NCI), USA. Eighteen hybrids 7a-h, 7k-r, 7u, and 7v were selected by NCI for one-dose assessment of their anti-proliferative activities at 10 µM dose by Sulforhodamine B colorimetric assay. The assessment was performed in 60 cell lines derived from nine tumor subpanels, comprising lung, leukemia, melanoma, colon, renal, CNS, prostate, breast, and ovarian cancer cell lines.
(§2) The methodology of the NCI anti-proliferative screening has been described in details elsewhere (http://www.dtp.nci.nih.gov).

HOP-62 = experiment: NCI one-dose SRB anti-proliferative screen; assay type: cell-based; settings: Homo sapiens; HOP-62 (Non-Small Cell Lung Cancer), NCI one dose 10 µM; read-out: Cell growth inhibition %
Protocol: as §1, §2

UACC-62 = experiment: NCI one-dose SRB anti-proliferative screen; assay type: cell-based; settings: Homo sapiens; UACC-62 (Melanoma), NCI one dose 10 µM; read-out: Cell growth inhibition %
Protocol: as §1, §2

A-549 = experiment: Propidium iodide anti-proliferative assay; assay type: cell-based; settings: Homo sapiens, A549; 48 h incubation; read-out: IC50 ± SEM A-549
Protocol: (§3) The propidium iodide (PI) tests^31, 32 were further used for assessment of the IC50 of all synthesized compounds and compared to Doxorubicin as a positive control against four cancer cell lines; pancreatic cancer cell line (Panc-1), epithelial line cancer cell (A-549), breast cancer cell line (MCF-7), and colon cancer cell line (HT-29).
(§4) Using the propidium iodide fluorescence assay with doxorubicin as the reference drug, IC50 of the 24 compounds 7a-x, was carried out according to a previously reported procedure^31, 32 against a panel of four human cancer cell lines; epithelial cancer cell line (A-549), breast cancer cell line (MCF-7), colon cancer cell line (HT-29) and pancreas cancer cell line (Panc-1). Compounds 7a-x were incubated with cancer cells for 2 days at different concentrations. See Appendix A.
(§5) To explore the antiproliferative potential of compounds propidium iodide fluorescence assay was performed using different cell lines (melanoma cancer cell line LOX-IMVI, pancreatic cancer cell line (Panc-1), epithelial line cancer cell (A-549), breast cancer cell line (MCF-7), and colon cancer cell line (HT-29). To calculate the total nuclear DNA, a fluorescent dye (propidium iodide, PI) is used which can attach to the DNA,^9,^10 thus offering a quick and precise technique. PI cannot pass through the cell membrane and its signal intensity can be considered as directly proportional to the quantity of cellular DNA. Cells whose cell membranes are damaged or have changed permeability are counted as dead ones. The assay was performed by seeding the cells of different cancer cell lines at a density of 3000-7500 cells/well (in 200µl medium) in culture plates followed by incubation for 24h at 37 °C in humidified 5% CO2/95% air atmospheric conditions. The medium was removed; the compounds were added to the plates at 10 µM concentrations (in 0.1% DMSO) in triplicates, followed by incubation for 48 h. DMSO (0.1%) was used as control. After incubation, medium was removed followed by the addition of PI (25 µl, 50µg/mL in water/medium) to each well of the plates. At -80 °C, the plates were allowed to freeze for 24 h, followed by thawing at 25 °C. A fluorometer (Polar-Star BMG Tech) was used to record the readings at excitation and emission wavelengths of 530 and 620 nm for each well. The percentage cytotoxicity of compounds was calculated using the following formula:
(§6) Where ATC= Absorbance of treated cells and AC= Absorbance of control. […]

MCF-7 = experiment: Propidium iodide anti-proliferative assay; assay type: cell-based; settings: Homo sapiens, MCF7; 48 h incubation; read-out: IC50 ± SEM MCF-7
Protocol: as §3, §4, §5, §6

HT-29 = experiment: Propidium iodide anti-proliferative assay; assay type: cell-based; settings: Homo sapiens, 48 h incubation, read-out: IC50 ± SEM HT-29
Protocol: as §3, §4, §5, §6

Panc-1 = experiment: Propidium iodide anti-proliferative assay; assay type: cell-based; settings: Homo sapiens, 48 h incubation, read-out: IC50 ± SEM Panc-1
Protocol: as §3, §4, §5, §6

K-562 = experiment: NCI one-dose SRB anti-proliferative screen; assay type: cell-based, human; settings: Homo sapiens, K562; K-562 (Leukemia), NCI one dose 10 µM; read-out: Cell growth inhibition %
Protocol: as §1, §2

RXF 393 = experiment: NCI one-dose SRB anti-proliferative screen; assay type: cell-based, human; settings: Homo sapiens; RXF 393 (Renal Cancer), NCI one dose 10 µM; read-out: Cell growth inhibition %
Protocol: as §1, §2

MOLT-4 = experiment: NCI one-dose SRB anti-proliferative screen; assay type: cell-based, human; settings: Homo sapiens; MOLT-4 (Leukemia), NCI one dose 10 µM; read-out: Cell growth inhibition %
Protocol: as §1, §2

HCT-116 = experiment: NCI one-dose SRB anti-proliferative screen; assay type: cell-based, human; settings: Homo sapiens; HCT-116 (Colon Cancer), NCI one dose 10 µM; read-out: Cell growth inhibition %
Protocol: as §1, §2

T-47D = experiment: NCI one-dose SRB anti-proliferative screen; assay type: cell-based, human; settings: Homo sapiens, T47D; T-47D (Breast Cancer), NCI one dose 10 µM; read-out: Cell growth inhibition %
Protocol: as §1, §2

[1] = MTT cell viability assay in normal cells; assay type: cell-based; settings: human, MCF-10A normal mammary epithelial cells
Protocol: To check the safety of prepared compounds and evaluate their selectivity towards tumor cells over normal ones, the toxicity of compounds 7a-x were evaluated by 3-(4,5-Dimethylthiazole-2-yl)-2,5-diphenyltetrazol (MTT) assay on the normal human mammary epithelial cell line (MCF-10 A). The human mammary epithelial cell lines were incubated for four days with a concentration of 50 µM of compounds 7a-x.
MTT assay was done to determine the effect of the synthesized compounds on the viability of mammary epithelial cells (MCF-10 A). Compounds 7a-x were incubated with MCF-10 A cells for 4 days at 50 µM concentration, and the viability of cells was determined. See Appendix A.
MTT assay was carried out to study the effect of compounds on mammary epithelial cells (MCF-10A).^7, ^8 The medium in which cells were propagated contained Dulbecco's modified Eagle's medium (DMEM)/ Ham's F-12 medium (1:1) supplemented with epidermal growth factor (20 ng/mL), hydrocortisone (500 ng/mL), insulin (10 μg/mL), 2 mM glutamine and 10% foetal calf serum. After every 2-3 days, the cells were passaged using trypsin ethylenediamine tetra acetic acid (EDTA). The cells were seeded at a density of 10^4 cells mL^-1 in flat-bottomed culture plates containing 96 wells each. After 24 h, medium was removed from the plates and the compounds in (in 0.1% DMSO) were added (in 200 μL medium to yield a final concentration of 0.1% v/v) to the wells of plates. A single compound was designated with four wells followed by incubation of plates for 96h at 37°C. After incubation, medium was removed completely from the plates followed by addition of MTT (0.4 mg/mL in medium) to each well and subsequent incubation of plates for 3h. MTT (along with the medium) was removed and DMSO (150μL) was added to each well of the culture plates, followed by vortexing and subsequent measurement of absorbance (at 540 nm) using microplate reader.

SMILES | inhibition at 10 µM (EKVX) | inhibition at 10 µM (HOP-62) | inhibition at 10 µM (UACC-62) | IC50 (A-549) | IC50 (MCF-7) | IC50 (HT-29) | IC50 (Panc-1) | inhibition at 10 µM (K-562) | inhibition at 10 µM (RXF 393) | inhibition at 10 µM (MOLT-4) | inhibition at 10 µM (HCT-116) | inhibition at 10 µM (T-47D) | viability at 96 h, 50 µM [1] | melting point
O=C(CSc1nnc(-c2ccc3[nH]c(-c4ccc(Cl)cc4)nc3c2)o1)Nc1ccc(C(=O)/C=C/c2ccccc2)cc1 [Compound 7f, 2-{5-[2-(4-Chlorophenyl)-1 H-benzo[d]imidazol-5-yl]-1,3,4-oxadiazol-2-ylthio}-N-{4-[(E)-3-phenylacryloyl]phenyl}acetamide] | 0% | 0% | 5.12% | 2.15 ± 0.5 µM | 2.05 ± 0.5 µM | 2.7 ± 0.5 µM | 2.4 ± 0.6 µM | 8.26% | 0% | 9% | 0% | 0% | 87% | 161 to 163 °C
O=C(CSc1nnc(-c2ccc3[nH]c(-c4ccc(Cl)cc4)nc3c2)o1)Nc1ccc(C(=O)/C=C/c2ccc(Cl)cc2)cc1 [Compound 7g, 2-{5-[2-(4-Chlorophenyl)-1 H-benzo[d]imidazol-5-yl]-1,3,4-oxadiazol-2-ylthio}-N-{4-[(E)-3-(4-chlorophenyl)acryloyl]phenyl}acetamide] | 6.19% | 2.12% | 16.8% | 1.8 ± 0.6 µM | 1.45 ± 0.3 µM | 2.1 ± 0.6 µM | 1.9 ± 0.5 µM | 18.6% | 0% | 22.2% | 22.2% | 12.9% | 91% | 215 to 217 °C
COc1ccc(/C=C/C(=O)c2ccc(NC(=O)CSc3nnc(-c4ccc5[nH]c(-c6ccc(Cl)cc6)nc5c4)o3)cc2)cc1 [Compound 7h, 2-{5-[2-(4-Chlorophenyl)-1 H-benzo[d]imidazol-5-yl]-1,3,4-oxadiazol-2-ylthio}-N-{4-[(E)-3-(4-methoxyphenyl)acryloyl]phenyl}acetamide] | 0% | 0% | 16.2% | 1.95 ± 0.6 µM | 1.75 ± 0.4 µM | 2.25 ± 0.6 µM | 2.05 ± 0.5 µM | 12.7% | 0% | 35.4% | 6.56% | 22% | 87% | 228 to 230 °C
